# In paper PMC10999543, “Identification of kinase modulators as host-directed therapeutics against intracellular methicillin-resistant Staphylococcus aureus” (Frontiers in Cellular and Infection Microbiology, 2024):
# Like-named read-outs stand apart in the source and are kept apart here.
# Key:
# [1] = tested on: HeLa, MelJuSo, A549, MCF7 and PMA-differentiated THP-1 cells; assay: Light microscopy of cell morphology (cytopathogenic effects); type: cell-based, human; settings: for changes in cell morphology / cytopathogenic effects by light microscopy: 10 µM, HeLa, MelJuSo, A549, MCF7, THP-1 cells
# [2] = tested on: intracellular MRSA in MelJuSo cells; assay: Gentamicin protection assay with CFU count in MRSA-infected MelJuSo cells; type: cell-based, Staphylococcus aureus; settings: 10 µM, n=7
# Procedure: The cells were resuspended in cell culture medium without antibiotics, seeded with 10,000 cells/well into Costar flat-bottom 96-well plates (Corning, Amsterdam, the Netherlands), and were incubated overnight at 37°C/5% CO2. The next day, the bacteria were centrifuged at ≥1800 g for 15 min and resuspended in cold PBS + 5 mM ethylenediaminetetraacetic acid (EDTA). The number of CFUs present in the bacterial suspension was estimated from the optical density at 600 nm (OD600) by assuming 8x10^8 CFUs to be present in a bacterial suspension with OD600 = 1, based on prior titrations. The bacterial suspension was diluted in cell culture medium without antibiotics and added to the cells. Accuracy of the multiplicity of infection (MOI) was validated by plating serial dilutions of the MRSA inoculums on Difco TS agar plates (BD Biosciences). The calculated mean MOI throughout all experiments was 6.8 ± 4.6 (mean ± SD). Infected cells were centrifuged for 3 min at 150 g and incubated for 1 hour at 37°C/5% CO2. Next, the cells were incubated with fresh cell culture medium supplemented with 30 µg/ml gentamicin sulphate (Lonza BioWhittaker, Basel, Switzerland) for 15 min at 37°C/5% CO2 to kill residual extracellular bacteria. Infected cells were incubated overnight at 37°C/5% CO2 in cell culture medium in the presence of kinase inhibitors and 5 µg/ml gentamicin sulphate-containing medium to prevent the growth of extracellular bacteria. The solvent of the compounds, DMSO, was used at equal % v/v as a negative control. For the screen, each compound was tested in triplicate, on separate cell culture plates, resulting in triplicate values for each kinase inhibitor.
# Infected cells were lysed in sterile water + 0.05% UltraPure SDS solution (Invitrogen, ThermoFisher Scientific) to release intracellular bacteria. Bacterial suspensions and lysates of cells infected with MRSA were 5-fold serially diluted and 10-μl drops were plated on square TS agar plates. The plates were left to dry and incubated overnight at 37°C/5% CO2.
# intracellular MRSA = type: cell-based, Staphylococcus aureus; settings: for %GFP+ rep 1 / z-scoreMRSA+ rep 1: replicate 1; for %GFP+ rep 2 / z-scoreMRSA+ rep 2: replicate 2; for %GFP+ rep 3 / z-scoreMRSA+ rep 3: replicate 3; for z-scoreMRSA+ mean: mean of 3 replicates
# Procedure, shortened: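 HeLa cells were infected with GFP-expressing MRSA (mean MOI 6.8) for 1 h, treated with 30 µg/ml gentamicin for 15 min, then incubated overnight at 37°C with kinase inhibitors and 5 µg/ml gentamicin. Flow cytometry gave % GFP-positive cells, with cell count as viability. Hits were z-score ≤ -2 (infection) and ≥ -3 (count) versus DMSO.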
# MRSA = type: in vivo, zebrafish; settings: for survival rate of MRSA-infected zebrafish embryos: 10 µM, after 4 days, 1000 CFUs MRSA, DMSO 57.5%, uninfected 93.8%
# Procedure: Zebrafish embryos were dechorionated at 24 hpf. The OD600 of a log-phase MRSA culture was centrifuged and dissolved in PBS with 2% polyvinylpyrrolidone (Merck) to improve homogeneity of the bacterial suspension. The OD600 was measured and the bacterial suspension was diluted to a final concentration of 10^9 CFUs/ml accordingly. The preparation of injection needles and the equipment used for microinjections have been previously described ([Benard et al., 2012]). At 28 hpf, zebrafish embryos were anesthetized in 200 µg/ml buffered ethyl 3-aminobenzoic acid (Tricaine, Sigma-Aldrich) and injected in the blood island with a bacterial dose of 1 nl containing 1000 CFUs of MRSA. Infected embryos were collected and randomly distributed over 6-wells plates with ten embryos/well. At 30 hpf, the infected embryos were given kinase inhibitors or DMSO as negative control. Survival of the embryos was scored at 48, 72, 96 and 120 hpf.
# zebrafish embryos = assay: Zebrafish embryo toxicity test; type: in vivo; settings: for further signs of toxicity in zebrafish embryos: serial dilutions; for concentration well tolerated in zebrafish embryos: wild type AB/TL
# Procedure: All experiments with zebrafish were done on embryos or larvae up to 5 days post fertilization, which have not yet reached the free-feeding stage and which were of the wild type AB/TL line. Fertilized embryos were maintained at 28°C and kept in egg water containing 60 μg/ml Instant Ocean Sea Salt (Sera, Heinsberg Germany). Zebrafish embryos were dechorionated with Dumont #5 forceps (Fine Science Tools Inc., Foster City, CA, USA) at 24 hours post fertilization (hpf) and transferred to 96-wells plates with each well containing a single embryo. Subsequently, the embryos were treated with kinase inhibitors or DMSO at 30 hpf. The health status of the embryos was assessed at 120 hpf. Healthy embryos were given a health score of 5. Health points were withdrawn for each of the following symptoms: no responsiveness to physical stimulation, cranial malformations, oedema or tail malformations. Dead embryos were given a health score of 0.
# HeLa cells = assay: Compound screen by flow cytometry: HeLa cell count as surrogate readout of cell viability (z-scoreHeLa); type: cell-based, human; settings: for cell count rep 1 / z-scoreHeLa rep 1: replicate 1; for cell count rep 2 / z-scoreHeLa rep 2: replicate 2; for cell count rep 3 / z-scoreHeLa rep 3: replicate 3; for z-scoreHeLa mean: mean of 3 replicates
# Procedure, shortened: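 The viability surrogate was the count of fixed HeLa cells by flow cytometry, converted to z-scores against DMSO controls with values deviating two-fold excluded. Before counting, cells had been infected with MRSA for 1 h and cleared of extracellular bacteria with gentamicin. They were then exposed overnight to kinase inhibitors in triplicate.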
# [3] = PKIS compound screen raw data, MRSA-infected HeLa cells
# [4] = PKIS compound screen, MRSA-infected HeLa cells
# [5] = PKIS compound screen, Yes/No call
# [6] = PKIS compound screen, Yes/No call (effect without cell death)
# [7] = PKIS compounds raw data, MRSA-infected HeLa cells
# [8] = PKIS compound screen raw data, HeLa cell count
# [9] = PKIS compound screen, HeLa cell count
# [10] = PKIS compounds raw data, HeLa cell count
# [11] = compound screen, MRSA-infected HeLa cells
# [12] = compound screen, HeLa cell count
compound,measurement,setting,value
CC(C)c1nc(-c2cccc(NS(=O)(=O)c3c(F)cccc3F)c2F)c(-c2ccnc(Nc3ccc(N4CCOCC4)nc3)n2)s1 [GSK2008607A],cytopathogenic effects in HeLa cells,[1]; 1 µM,cytopathogenic effects were already observed
same,changes in cell morphology / cytopathogenic effects by light microscopy,[1],cytopathogenic effects were observed
same,reduction in bacterial burden (CFU),[2],81%
same,%GFP+ rep 1,intracellular MRSA; [3],8.4%
same,%GFP+ rep 2,intracellular MRSA; [3],9.2%
same,%GFP+ rep 3,intracellular MRSA; [3],10.2%
same,z-scoreMRSA+ mean,intracellular MRSA; [4],-2.86
same,z-scoreMRSA+ rep 1,intracellular MRSA; [4],-2.77
same,z-scoreMRSA+ rep 2,intracellular MRSA; [4],-2.79
same,z-scoreMRSA+ rep 3,intracellular MRSA; [4],-3.01
same,effect,intracellular MRSA; [5],No
same,hit,intracellular MRSA; [6],No and Yes
same,effect,"intracellular MRSA; PKIS compound screen, Yes/No call on z-scoreMRSA+",Yes
same,z-scoreMRSA+ mean,intracellular MRSA; PKIS compound screen,-0.97
same,z-scoreMRSA+ rep 1,intracellular MRSA; PKIS compound screen,-1.10
same,z-scoreMRSA+ rep 2,intracellular MRSA; PKIS compound screen,-1.14
same,z-scoreMRSA+ rep 3,intracellular MRSA; PKIS compound screen,-0.66
same,%GFP+ rep 1,intracellular MRSA; [7],21.4%
same,%GFP+ rep 2,intracellular MRSA; [7],20.1%
same,%GFP+ rep 3,intracellular MRSA; [7],23.7%
same,toxicity in MRSA-infected zebrafish embryos,MRSA; 1 µM,severe compound-related toxicity
same,"embryos that died, of 15","zebrafish embryos; 1 µM, 120 hpf",one
same,symptoms of surviving zebrafish embryos,"zebrafish embryos; 3 and 10 µM, 120 hpf","oedema of the heart sac and yolk, as well as unresponsiveness to physical stimulation"
same,zebrafish embryo mortality,"zebrafish embryos; 3 and 10 µM, treated 30 hpf, scored 120 hpf",caused zebrafish embryo mortality
same,concentrations exhibiting toxicity in zebrafish embryos,"zebrafish embryos; zebrafish, in vivo",≥ 1 µM
same,"embryos that did not respond to physical stimulation, of 15","zebrafish embryos; zebrafish, in vivo",another
same,"embryos with cranial malformations, of 15","zebrafish embryos; zebrafish, in vivo",two
same,"embryos with oedema, of 15","zebrafish embryos; zebrafish, in vivo",three
same,cell count rep 1,HeLa cells; [8],21178
same,cell count rep 2,HeLa cells; [8],14585
same,cell count rep 3,HeLa cells; [8],12213
same,z-scoreHeLa mean,HeLa cells; [9],-1.56
same,z-scoreHeLa rep 1,HeLa cells; [9],-1.53
same,z-scoreHeLa rep 2,HeLa cells; [9],-1.83
same,z-scoreHeLa rep 3,HeLa cells; [9],-1.31
same,cell death,HeLa cells; [5],No
same,cell death,"HeLa cells; PKIS compound screen, Yes/No call on z-scoreHeLa",No
same,z-scoreHeLa mean,HeLa cells; PKIS compound screen,-1.34
same,z-scoreHeLa rep 1,HeLa cells; PKIS compound screen,-1.52
same,z-scoreHeLa rep 2,HeLa cells; PKIS compound screen,-1.39
same,z-scoreHeLa rep 3,HeLa cells; PKIS compound screen,-1.10
same,cell count rep 1,HeLa cells; [10],3519
same,cell count rep 2,HeLa cells; [10],3908
same,cell count rep 3,HeLa cells; [10],3860
COc1ccc2[nH]c3c4[nH]c5ccc(OC)cc5c4c4c(c3c2c1)C(=O)NC4=O [GW296115X],changes in cell morphology / cytopathogenic effects by light microscopy,[1],slight changes in cell morphology
same,reduction in bacterial burden (CFU),[2],88%
same,z-scoreMRSA+ (z-score of GFP-positive cells),"intracellular MRSA; 10 µM, 24 h, HeLa cells infected with GFP-expressing MRSA",-3.82
same,MRSA-infected cells (mean ± SD),"intracellular MRSA; 10 µM, 24 h, HeLa cells, DMSO 14.6% ± 1.0%",2.1% ± 0.26
same,%GFP+ rep 1,intracellular MRSA; [7],2.3%
same,%GFP+ rep 2,intracellular MRSA; [7],1.8%
same,%GFP+ rep 3,intracellular MRSA; [7],2.2%
same,effect,intracellular MRSA; Yes/No call from z-scoreMRSA+,Yes
same,hit,intracellular MRSA; Yes/No: effect without cell death,Yes
same,z-scoreMRSA+ mean,intracellular MRSA; [11],-3.82
same,z-scoreMRSA+ rep 1,intracellular MRSA; [11],-3.48
same,z-scoreMRSA+ rep 2,intracellular MRSA; [11],-3.91
same,z-scoreMRSA+ rep 3,intracellular MRSA; [11],-4.06
same,survival rate of MRSA-infected zebrafish embryos,MRSA,77.5%
same,further signs of toxicity in zebrafish embryos,zebrafish embryos; 120 hpf,no further signs of toxicity were observed
same,concentration well tolerated in zebrafish embryos,"zebrafish embryos; zebrafish, in vivo",≤ 10 µM
same,cell count rep 1,HeLa cells; [10],4446
same,cell count rep 2,HeLa cells; [10],4236
same,cell count rep 3,HeLa cells; [10],6955
same,cell death,HeLa cells; Yes/No call from z-scoreHeLa,No
same,z-scoreHeLa mean,HeLa cells; [12],-0.11
same,z-scoreHeLa rep 1,HeLa cells; [12],-0.30
same,z-scoreHeLa rep 2,HeLa cells; [12],-0.0242
same,z-scoreHeLa rep 3,HeLa cells; [12],-0.00316
O=S(=O)(CCNCc1ccc(-c2ccc3ncnc(Nc4ccc(OCc5cccc(F)c5)c(Cl)c4)c3c2)o1)c1ccccc1 [GW633459A],changes in cell morphology / cytopathogenic effects by light microscopy,[1],not observed
same,reduction in bacterial burden (CFU),[2],81%
same,effect,intracellular MRSA; [5],Yes
same,hit,intracellular MRSA; [6],Yes
same,z-scoreMRSA+ mean,intracellular MRSA; PKIS compound screen,-2.34
same,z-scoreMRSA+ rep 1,intracellular MRSA; PKIS compound screen,-2.22
same,z-scoreMRSA+ rep 2,intracellular MRSA; PKIS compound screen,-2.06
same,z-scoreMRSA+ rep 3,intracellular MRSA; PKIS compound screen,-2.75
same,%GFP+ rep 1,intracellular MRSA; [7],6.2%
same,%GFP+ rep 2,intracellular MRSA; [7],7.3%
same,%GFP+ rep 3,intracellular MRSA; [7],6.6%
same,survival rate of MRSA-infected zebrafish embryos,MRSA,67.5%
same,further signs of toxicity in zebrafish embryos,zebrafish embryos; 120 hpf,no further signs of toxicity were observed
same,concentration well tolerated in zebrafish embryos,"zebrafish embryos; zebrafish, in vivo",≤ 10 µM
same,cell death,HeLa cells; [5],No
same,z-scoreHeLa mean,HeLa cells; PKIS compound screen,0.80
same,z-scoreHeLa rep 1,HeLa cells; PKIS compound screen,0.28
same,z-scoreHeLa rep 2,HeLa cells; PKIS compound screen,0.72
same,z-scoreHeLa rep 3,HeLa cells; PKIS compound screen,1.40
same,cell count rep 1,HeLa cells; [10],5085
same,cell count rep 2,HeLa cells; [10],5223
same,cell count rep 3,HeLa cells; [10],9893
